Laboratory results published in patent US12421242B2, “Substituted tetrahydropyrrolo-pyridinone compounds and their use in treating medical conditions” (Karuna Therapeutics, Inc., priority 2022, dated 2025).

Assays:
hM4 receptors = target: T1, hM4 receptors (Homo sapiens, UniProt P08173); assay: Human M4 PAM pERK assay; assay type: cell-based; conditions: PAM mode
T1 construct: expressed in transfected cells; host or cells: CHO cells
T1 sequence (P08173 1-479): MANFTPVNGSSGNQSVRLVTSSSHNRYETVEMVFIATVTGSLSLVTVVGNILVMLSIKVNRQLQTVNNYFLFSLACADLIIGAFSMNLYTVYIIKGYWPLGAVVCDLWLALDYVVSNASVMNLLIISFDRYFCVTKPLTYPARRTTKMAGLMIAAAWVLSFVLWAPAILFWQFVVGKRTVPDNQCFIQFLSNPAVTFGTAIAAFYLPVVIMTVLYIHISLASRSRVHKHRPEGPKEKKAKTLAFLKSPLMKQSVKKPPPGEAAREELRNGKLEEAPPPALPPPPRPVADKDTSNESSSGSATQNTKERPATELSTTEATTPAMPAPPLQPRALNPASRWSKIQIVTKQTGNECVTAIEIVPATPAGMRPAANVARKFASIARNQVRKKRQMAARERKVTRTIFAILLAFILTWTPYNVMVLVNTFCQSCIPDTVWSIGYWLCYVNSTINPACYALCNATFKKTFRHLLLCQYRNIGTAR
Procedure: (§1) Chinese hamster ovary (CHO) cells expressing either hM4 or rM4 receptors were frozen in assay ready vials (5×10^6 cells/vial) after bulking-up in culture. The day before an assay, vial(s) were thawed and cells seeded in 384 well white proxiplates at 1000/well for hM4 cells and at 2000/well for rM4 cells, in 10 μL of growth media (Hams/F12 with glutamax and 10% FCS) and incubated overnight at 37° C./5% CO2.
(§2) On the following morning, the growth media was removed by ‘flicking out’ over a bin, patting the inverted plate onto tissue, and then replacing with 10 μL of wash media (Hams/F12 with glutamax and 8 mM HEPES, NB: serum free). Then, the wash media was removed in the same way and replaced with 8 μL/well of the serum free media. Plates were then re-incubated for a further 4 hours at 37° C./5% CO2.
(§3) Compounds for testing were solubilized to 10 mM in DMSO and compound addition plates, consisting of ten-point concentration response curves (CRC) in duplicate points (10 μM top concentration, […]), were prepared by acoustic dispensing and the compound management group.
(§4) After the 4-hour incubation in serum free media, a 4 μL aliquot of the 3× compound solution containing an EC20 of acetylcholine (10 nM final concentration) was added to the cell plate using a 384 well plate to plate transfer. Then, the plate lid was replaced, and the cells incubated for 5 mins at 37° C./5% CO2. Following this final incubation, all cellular processes were stopped by the addition of 4 μL/well of lysis and blocking buffer and plates were incubated for 30 minutes at RT on an orbital shaker (gentle setting). Then, a final addition of 4 μL/well of antibody detection mix, containing both the Europium-Cryptate (donor) and d2 (acceptor) tagged detection components, was added followed by a further 2-hour incubation at RT, and then the plate was read using a TR-FRET (time resolved fluorescence resonance energy transfer) based protocol.

rM4 receptors = target: T2, rM4 receptors (Rattus norvegicus, UniProt P08485); assay: Rat M4 PAM pERK assay; assay type: cell-based; conditions: PAM mode
T2 construct: expressed in transfected cells; host or cells: CHO cells
T2 sequence (P08485 1-478): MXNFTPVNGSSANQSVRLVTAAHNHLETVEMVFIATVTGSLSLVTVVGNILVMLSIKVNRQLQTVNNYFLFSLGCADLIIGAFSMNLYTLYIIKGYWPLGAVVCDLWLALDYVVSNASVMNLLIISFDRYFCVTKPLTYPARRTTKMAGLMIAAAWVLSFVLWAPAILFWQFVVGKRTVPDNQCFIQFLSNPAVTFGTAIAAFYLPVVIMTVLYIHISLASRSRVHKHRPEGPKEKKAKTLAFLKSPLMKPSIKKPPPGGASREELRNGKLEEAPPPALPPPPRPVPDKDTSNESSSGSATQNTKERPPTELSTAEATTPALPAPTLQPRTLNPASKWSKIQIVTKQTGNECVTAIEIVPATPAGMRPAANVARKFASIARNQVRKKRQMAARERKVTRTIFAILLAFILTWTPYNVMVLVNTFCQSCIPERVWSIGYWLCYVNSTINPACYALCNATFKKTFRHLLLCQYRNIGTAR
Procedure: as §1, §2, §3, §4

Compound	EC50 (hM4 receptors)	EC50 (rM4 receptors)
Cc1cc(=O)n(C)c2c1CN(C(=O)c1cnn(C)c1)C2C (single isomer, unassigned) [Compound I-107, 1,4,7-Trimethyl-6-(1-methyl-1H-pyrazole-4-carbonyl)-1,5,6,7-tetrahydro-2H-pyrrolo[3,4-b]pyridin-2-one]	> 2000 nM	> 2000 nM
Cc1c2c(n(C)c(=O)c1Cl)CN(C(=O)c1cn(C)cn1)C2 [Compound I-4]	500 to 2000 nM	> 2000 nM
Cc1c2c(n(C)c(=O)c1Cl)CN(C(=O)c1cnn(CC(C)C)c1)C2 [Compound I-5]	500 to 2000 nM	> 2000 nM
Cc1c2c(n(C)c(=O)c1Cl)CN(C(=O)c1ccc(C(C)(C)C)s1)C2 [Compound I-7]	500 to 2000 nM	> 2000 nM
Cc1c2c(n(C)c(=O)c1Cl)CN(C(=O)c1cnn(Cc3ccccc3)c1)C2 [Compound I-23]	100 to 500 nM	500 to 2000 nM
Cc1c2c(n(C)c(=O)c1Cl)CN(C(=O)c1cn3c(n1)COCC3)C2 [Compound I-25]	500 to 2000 nM	> 2000 nM
Cc1c2c(n(C)c(=O)c1Cl)CN(C(=O)c1cnn(CC3CC3)c1)C2 [Compound I-27]	500 to 2000 nM	> 2000 nM
Cc1c2c(n(C)c(=O)c1Cl)CN(C(=O)c1ncc3ccccn13)C2 [Compound I-31]	> 2000 nM	> 2000 nM
Cc1c2c(n(C)c(=O)c1Cl)CN(C(=O)c1cn3c(n1)CCC3)C2 [Compound I-33]	100 to 500 nM	> 2000 nM
Cc1c2c(n(C)c(=O)c1Cl)CN(C(=O)c1cnc(CC(C)C)s1)C2 [Compound I-34]	100 to 500 nM	500 to 2000 nM
Cc1c2c(n(C)c(=O)c1Cl)CN(C(=O)c1cnc(C3CCC3)s1)C2 [Compound I-35]	100 to 500 nM	> 2000 nM
Cc1c2c(n(C)c(=O)c1Cl)CN(C(=O)c1cnn3c1CCC3)C2 [Compound I-37]	> 2000 nM	> 2000 nM
COCc1ncc(C(=O)N2Cc3c(C)c(Cl)c(=O)n(C)c3C2)s1 [Compound I-38]	100 to 500 nM	> 2000 nM
Cc1c2c(n(C)c(=O)c1Cl)CN(C(=O)c1cnc(CC(F)(F)F)s1)C2 [Compound I-39]	500 to 2000 nM	> 2000 nM
Cc1c2c(n(C)c(=O)c1Cl)CN(C(=O)c1ccc3nonc3c1)C2 [Compound I-43]	100 to 500 nM	500 to 2000 nM
Cc1c2c(n(C)c(=O)c1Cl)CN(C(=O)c1ccc3c(c1)COC3)C2 [Compound I-50]	100 to 500 nM	100 to 500 nM
Cc1c2c(n(C)c(=O)c1Cl)CN(C(=O)c1cnn(CC3(C)COC3)c1)C2 [Compound I-53, 3-Chloro-1,4-dimethyl-6-(1-((3-methyloxetan-3-yl)methyl)-1H-pyrazole-4-carbonyl)-1,5,6,7-tetrahydro-2H-pyrrolo[3,4-b]pyridin-2-one]	> 2000 nM	> 2000 nM
Cc1c2c(n(C)c(=O)c1Cl)CN(C(=O)c1cnn(CC3COC3)c1)C2 [Compound I-54]	100 to 500 nM	> 2000 nM
Cc1c2c(n(C)c(=O)c1Cl)CN(C(=O)c1cnn(CC3CCCC3)c1)C2 [Compound I-55]	100 to 500 nM	> 2000 nM
Cc1c2c(n(C)c(=O)c1Cl)CN(C(=O)c1cnn(CC3CCOC3)c1)C2 (stereo not drawn) [Compound I-56]	> 2000 nM	> 2000 nM
Cc1c2c(n(C)c(=O)c1Cl)CN(C(=O)c1cnn(Cc3ccc(C(F)(F)F)nc3)c1)C2 [Compound I-57]	> 2000 nM	> 2000 nM
Cc1c2c(n(C)c(=O)c1Cl)CN(C(=O)c1cc(CC(F)(F)F)on1)C2 [Compound I-58, 3-Chloro-1,4-dimethyl-6-(5-(2,2,2-trifluoroethyl)isoxazole-3-carbonyl)-1,5,6,7-tetrahydro-2H-pyrrolo[3,4-b]pyridin-2-one]	500 to 2000 nM	> 2000 nM
Cc1c2c(n(C)c(=O)c1Cl)CN(C(=O)c1cnn(Cc3cccnc3)c1)C2 [Compound I-59, 3-Chloro-1,4-dimethyl-6-(1-(pyridin-3-ylmethyl)-1H-pyrazole-4-carbonyl)-1,5,6,7-tetrahydro-2H-pyrrolo[3,4-b]pyridin-2-one]	500 to 2000 nM	> 2000 nM
Cc1c2c(n(C)c(=O)c1Cl)CN(C(=O)c1cnn(Cc3ccncc3)c1)C2 [Compound I-60]	100 to 500 nM	> 2000 nM
Cc1c2c(n(C)c(=O)c1Cl)CN(C(=O)c1cnn(CC(F)(F)F)c1)C2 [Compound I-61]	500 to 2000 nM	> 2000 nM
Cc1c2c(n(CC3CC3)c(=O)c1Cl)CN(C(=O)c1cnc(CC3CC3)s1)C2 [Compound I-69, 3-Chloro-1-(cyclopropylmethyl)-6-(2-(cyclopropylmethyl)thiazole-5-carbonyl)-4-methyl-1,5,6,7-tetrahydro-2H-pyrrolo[3,4-b]pyridin-2-one]	100 to 500 nM	> 2000 nM
Cc1c2c(n(CC3CC3)c(=O)c1Cl)CN(C(=O)c1ccc3nc(C4CCC4)sc3c1)C2 [Compound I-70]	100 to 500 nM	100 to 500 nM

Now from value to compound:

EC50 (hM4 receptors)	EC50 (rM4 receptors)	Compound
100 to 500 nM	> 2000 nM	Cc1cc(=O)n(C)c2c1C(C)N(C(=O)c1ccc3nc(C(F)(F)F)sc3c1)C2 (single isomer, unassigned) [Compound I-101]
< 100 nM	> 2000 nM	Cc1c2c(n(C)c(=O)c1Cl)CN(C(=O)c1cnn(C)c1)C2 [Compound I-2]
100 to 500 nM	> 2000 nM	Cc1c2c(n(C)c(=O)c1Cl)CN(C(=O)c1cnn(C(C)C)c1)C2 [Compound I-10]
100 to 500 nM	> 2000 nM	Cc1c2c(n(C)c(=O)c1Cl)CN(C(=O)c1cn(C(F)(F)F)cn1)C2 [Compound I-15]
100 to 500 nM	> 2000 nM	Cc1c2c(n(C)c(=O)c1Cl)CN(C(=O)c1ccn(C(F)(F)F)n1)C2 [Compound I-16]
< 100 nM	500 to 2000 nM	Cc1c2c(n(C)c(=O)c1Cl)CN(C(=O)c1ccc3ncsc3c1)C2 [Compound I-46]
< 100 nM	500 to 2000 nM	Cc1c2c(n(C)c(=O)c1Cl)CN(C(=O)c1ccc3cncn3c1)C2 [Compound I-47]
< 100 nM	100 to 500 nM	Cc1c2c(n(C)c(=O)c1Cl)CN(C(=O)c1ccc3nc(C4CCC4)sc3c1)C2 [Compound I-51, 3-Chloro-6-(2-cyclobutylbenzo[d]thiazole-6-carbonyl)-1,4-dimethyl-1,5,6,7-tetrahydro-2H-pyrrolo[3,4-b]pyridin-2-one]
< 100 nM	500 to 2000 nM	Cc1c2c(n(C)c(=O)c1Cl)CN(C(=O)c1cnc(CC3CC3(F)F)s1)C2 (stereo not drawn) [Compound I-65]
< 100 nM	100 to 500 nM	Cc1c2c(n(C)c(=O)c1Cl)CN(C(=O)c1cc(C(F)(F)F)n(C)c1)C2 [Compound I-68, 3-Chloro-1,4-dimethyl-6-(1-methyl-5-(trifluoromethyl)-1H-pyrrole-3-carbonyl)-1,5,6,7-tetrahydro-2H-pyrrolo[3,4-b]pyridin-2-one]
< 100 nM	100 to 500 nM	Cc1c2c(n(C)c(=O)c1Cl)CN(C(=O)c1cnn(C(F)F)c1)[C@@H]2C [Compound I-77]
< 100 nM	100 to 500 nM	Cc1c2c(n(C)c(=O)c1C)CN(C(=O)c1cnn(C(F)(F)F)c1)[C@@H]2C [Compound I-78, (R)-1,3,4,5-Tetramethyl-6-(1-(trifluoromethyl)-1H-pyrazole-4-carbonyl)-1,5,6,7-tetrahydro-2H-pyrrolo[3,4-b]pyridin-2-one]
